Entries after “also recorded” stand apart in the source; their conditions may differ. Like-named read-outs stand apart in the source and are kept apart here.
Tests used:
CRBN and CBP-BRD = CRBN and CBP-BRD (Homo sapiens, UniProt Q92793+Q96SW2); assay: FluoPPI cellular ternary complex formation, CBP-BRD; assay type: cell-based; conditions: U2OS cells, 6 h
SH-SY5Y cells = assay: Cell viability (resazurin), SH-SY5Y; assay type: cell-based; conditions: 3 day treatment
Procedure: normalized to DMSO treated lanes on the same membrane. (Several compounds were
measured at the same time, so DMSO treated lanes are replicated here between
Figure S5. Anti-proliferation in additional cell lines. LNCaP (A and C) and SH-SY5Y (B)
cell viability following 3 day compound treatment, and LNCaP following 6 day treatment
(D), determined using resazurin.
After 3 days of treatment, dCE-2 only has a mild effect on the proliferation of LNCaP and
SH-SY5Y cells (Figure S5A and B).
the new CBP/EP300 PROTACs CBPD -268 and CBPD-4092,3 which have enhanced anti-
proliferative activity in LNcaP cells relative to their parent inhibitor s. However, although
these PROTACs have effects at very low concentrations, their effect plateaus and a
substantial proportion of cells remain viable at high compound concentrations. Similarly,
degradation of CBP and EP300, the maximal effect of this PROTAC is also limited under
the conditions we used (Figure S5C). Through this work it was clear to us that these […]
(§1) The primer sequences used were:
(§2) Gene Gene ID Forward Primer (5’-3’) Reverse primer (5’-3’)
(§3) myc NM_001354870.1 GTAGTGGAAAACCAGCC […]
(§4) Fluorescence (excitation = 560 nm, emission = 590 nm) was measured using a
spectraMax M5 microplate reader (Molecular Devices) and cell viability was calculated […]
values were calculated as the concentration required to inhibit cell viability to 50 % […]

CBP-BRD = CBP-BRD (Homo sapiens, UniProt Q92793); assay: TR-FRET competition with acetylated peptide binding to CBP-BRD, with and without CRBN (cooperativity); design: GST-CBP (human, residues 1081-1197); made in house; host or cells: Rosetta (DE3) cells (E. coli)
MM1S cells = assay: Cell viability (resazurin), MM1S; assay type: cell-based; conditions: Homo sapiens, MM1.S, 72 h, 3 days
Procedure: as §1, §2, §3
crebbp NM_004380.3 TGTCACAGGGACAGGTGC […]
Cells were plated onto 96 well plates at the following densities in 90 μl volume: 3x104
LP1 cells/well or 5x10^3 LNCaP cells/well both plated same day as treatment, or 2x104
MM1S cells/well or 1.5x10^3 SH-SY5Y cells/well both plated day prior to treatment.
Compounds were added in 10 μl to give the stated concentrations with a final
concentration of 0.1 % DMSO. Following 3 days of compound treatment, resazurin
(Acros Organics, 189900010) was added at a f inal concentration of 86 μM and incubated
for the following times: MM1S 5 h, LP1 3 h, LNCaP 1 h 30 min, SH-SY5Y 6 h.
as §4
spectraMax M5 microplate reader (Molecular Devices) and cell viability was calculated
relative to DMSO treated cells on the same plate. Data was fitted using a four -parameter
dose-response curve in GraphPad Prism v. 9.5.1, where the top is fixed at 100 %. GI50
values were calculated as the concentration required to inhibit cell viability to 50 %
relative to DMSO treated cells after 3 days.
Sample digestion and clean up: Treated cells were washed in PBS and cell pellets
were then lysed in 4 % SDS/Tris-HCl, treated with High Intensity Focused Ultrasound […]

Sequence of CRBN and CBP-BRD (Q92793 1081-1211): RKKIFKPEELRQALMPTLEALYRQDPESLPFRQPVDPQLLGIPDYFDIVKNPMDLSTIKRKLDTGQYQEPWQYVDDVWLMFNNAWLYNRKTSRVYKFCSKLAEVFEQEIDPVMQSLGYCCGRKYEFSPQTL
Sequence of CRBN and CBP-BRD (Q96SW2 whole entry): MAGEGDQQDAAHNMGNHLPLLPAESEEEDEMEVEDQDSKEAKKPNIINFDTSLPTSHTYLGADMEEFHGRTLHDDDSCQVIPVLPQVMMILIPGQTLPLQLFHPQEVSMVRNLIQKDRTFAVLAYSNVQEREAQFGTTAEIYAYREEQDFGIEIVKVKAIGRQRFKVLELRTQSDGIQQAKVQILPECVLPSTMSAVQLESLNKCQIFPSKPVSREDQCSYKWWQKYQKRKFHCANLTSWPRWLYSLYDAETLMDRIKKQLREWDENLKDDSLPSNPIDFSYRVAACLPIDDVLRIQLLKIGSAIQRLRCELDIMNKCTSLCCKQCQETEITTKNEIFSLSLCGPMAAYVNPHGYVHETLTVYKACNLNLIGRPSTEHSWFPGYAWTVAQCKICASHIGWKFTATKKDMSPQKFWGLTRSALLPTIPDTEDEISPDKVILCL

ternary complex formation in cells with CRBN and CBP-BRD (CRBN and CBP-BRD): good ternary complex formation
IC50 (CBP-BRD; absence of CRBN, read-out: CBP-BRD IC50 (binary, IC50[control])): 150 nM
IC50 (CBP-BRD; presence of high concentrations of CRBN C-terminal thalidomide binding domain, read-out: ternary IC50 (IC50[CRBN])): 45 nM
GI50 (MM1S cells): 35 nM
SMILES: Cc1cc2c(NC(=O)c3cc(NC(=O)CCCCCCCCCCNc4cccc5c4C(=O)N(C4CCC(=O)NC4=O)C5=O)cc(-c4ccn(C)n4)c3)cccc2nn1 (centres unmarked) [dCE-2]
effect on proliferation of SH-SY5Y cells (SH-SY5Y cells): mild effect; also recorded: limited effect

— PMC11423305, “Structure-Based Design of CBP/EP300 Degraders: When Cooperativity Overcomes Affinity” (JACS Au, 2024)
